These results are taken from patent publication US20240109843A1, “BENZALDEHYDE COMPOUNDS WITH DIRECT POLYMER DESTABILIZING EFFECTS TO TREAT SICKLE CELL DISEASE” (VIRGINIA COMMONWEALTH UNIVERSITY, priority 2018, published 2024).

The structures appear in SMILES notation. “And” between values parts separate entries of the source, which are not always exact repeats. Equal entries are not always repeated.

Data set [1] can be described thus: Single-dose oral pharmacokinetics in rats. It is filed as in vivo, Sprague Dawley rats. The settings on record: Sprague Dawley, rat; single oral dose 100 mg/kg, male rats, whole blood. The protocol:
Single doses of each compound were administered as oral suspensions by gavage in 0.5% carboxy methylcellulose at 100 mg/kg. Whole blood levels were collected for at least 72 hours after dose administration. Bioanalyses were performed with liquid chromatography-tandem mass spectrometry […].
Single-dose pharmacokinetics (PK) in male Sprague Dawley (SD) rats (n=4) were assessed for each compound, and the maximum or peak whole blood concentration and area under the curve are shown in Table 5.

For data set [2], the target named is T1, Hb (Homo sapiens, UniProt P69905). The data set is described as follows: Drug partitioning studies, fixed and unfixed Hb adducts in non-sickling AA blood. The data set is classed as cell-based. Further details: Hemoglobin modification, studies using non-sickling AA blood; from tissue; host or cells: non-sickling (AA) human blood, red blood cells. The settings on record: 2 mM; for Fixed Adducts (%) / Unfixed Adduct (%): 6 biological replicates; for Partitioning Ratio (%): fixed relative to unfixed adducts. A digest of the protocol:
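Non-sickling blood was incubated with test molecules and lysed either in water (unfixed) or in 50 mM sodium borohydride (fixed). Hb adducts were quantified by cation-exchange HPLC as a fraction of total Hb. The partitioning ratio is fixed over unfixed modification and reflects intracellular Hb binding after RBC membrane permeation.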
Target sequence in this assay (P69905 2-142 limits assumed): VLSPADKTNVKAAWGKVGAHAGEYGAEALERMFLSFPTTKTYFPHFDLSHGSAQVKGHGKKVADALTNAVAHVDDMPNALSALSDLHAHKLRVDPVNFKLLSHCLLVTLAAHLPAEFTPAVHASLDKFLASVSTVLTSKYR
Target sequence in this assay (P68871 2-147 partner limits assumed): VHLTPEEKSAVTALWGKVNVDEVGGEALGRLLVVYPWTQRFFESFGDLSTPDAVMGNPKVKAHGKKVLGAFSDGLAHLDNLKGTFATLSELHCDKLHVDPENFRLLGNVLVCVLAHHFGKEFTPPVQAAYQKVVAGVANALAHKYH

For data set [3], the target named is T1, Hb. Put plainly: Affinity (KD) for Hb. It is filed as binding.
Target sequence in this assay (P69905 2-142 limits assumed): as the sequence (P69905 2-142 limits assumed) above
Target sequence in this assay (P68871 2-147 partner limits assumed): as the sequence (P68871 2-147 partner limits assumed) above
Data set [4] can be described thus: 14-day repeat-dose oral pharmacokinetics in rats. It is filed as in vivo. Conditions: SD, rat, whole blood, repeat oral doses 100 mg/kg for 14 days. The protocol:
(§1) Repeat doses of each compound were administered once daily as oral suspensions by gavage in 0.5% carboxy methylcellulose for 14 days at 100 mg/kg. Whole blood was collected at 7 time-points for up to 24 hours during the final dosing interval on Day 14. Clinical observations, body weights, and food consumption were recorded throughout the 14 day study. Clinical chemistry and hematologic parameters were assessed, and histopathology was performed on organs after 14 days of exposure to study drug.
(§2) Repeat oral doses of each compound were administered by oral gavage for 14 days to male and female SD rats (n=3). […] Steady state exposures for the final dosing interval on Day 14 were similar to total compound exposure from single-dose PK.

The nature of data set [5]: 14-day repeat-dose safety (clinical observations, histopathology) in rats. It is filed as in vivo, SD rats. Conditions: for safety in non-clinical toxicology: above anticipated therapeutic drug levels; for clinical or histopathologic changes after 14 days of exposure: oral 100 mg/kg once daily for 14 days, rats. The protocol: as §1, §2
The target in data set [6] is T1, Hb. The data set is described as follows: Hb modification (drug-adduct formation) in SS blood suspensions by cation-exchange HPLC. The data set is classed as binding. Further details: Blood suspensions from subjects with homozygous SCD; from tissue; host or cells: blood suspensions (20% hematocrit) from donors with homozygous SCD; lysates of the treated red cells. The settings on record: 2 mM, 4 biological replicates. The method, boiled down:
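Homozygous SCD blood at 20% hematocrit in Hemox buffer with glucose and BSA was incubated with compound (0-2 mM) 1 h at 37° C in air, then up to 2 h hypoxia (2.5% O2). Lysates, with or without 50 mM sodium borohydride reduction, were analysed by weak cation-exchange HPLC at A410 nm for Hb-drug adducts.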
Target sequence in this assay (P69905 2-142): as the sequence (P69905 2-142 limits assumed) above
Target sequence in this assay (P68871 with tags, fused parts or gaps E7V partner): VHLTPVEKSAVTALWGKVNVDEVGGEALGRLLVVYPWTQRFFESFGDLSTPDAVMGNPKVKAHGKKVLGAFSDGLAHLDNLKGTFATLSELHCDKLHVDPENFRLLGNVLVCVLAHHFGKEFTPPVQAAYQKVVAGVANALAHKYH

Data set [7] concerns RBCs from donors with homozygous SCD. The data set is described as follows: Oxygen-independent sickle inhibition in SS blood suspensions under anoxia (100% nitrogen). The data set is classed as cell-based, human. Conditions: anoxia. The protocol: To establish oxygen-independent sickle inhibition, the incubation chamber was subsequently opened and exposed to room air for 15 minutes to ensure complete re-oxygenation and reversal of the sickled cells to normal round cells. Reversal was confirmed by microscopy. The incubation chamber was then closed, and the assay was repeated with incubation in 100% nitrogen gas for 1 hour (for screening), or up to 2.5 h (for time-course studies), with collection and fixation of blood aliquots at defined intervals. Aliquot samples were again subjected to microscopic morphological analysis of bright field images to identify the proportion of sickled and non-sickled cells, and sickle inhibition calculated.

Data set [8] has as its target T1, Hb. The data set is described as follows: Dose-dependent P50 shift in non-sickling human blood. The data set is classed as cell-based. Set-up: Hemoglobin modification, studies using non-sickling AA blood; from tissue; host or cells: non-sickling (AA) human blood, red blood cells. The settings on record: compared to Voxelotor at equivalent drug-Hb occupancy levels. The protocol:
Non-sickling human blood was incubated with test compounds at 0.25-2 mM concentrations at 37° C. for 1 hour in 96-well round bottom plates. At conclusion, RBCs were washed once with PBS, followed by lysis with deionized water. Approximately 100 μl aliquots of individual lysates were added to 3 mL of 0.1M potassium phosphate buffer, pH 7.0 in a cuvette and subjected to hemoximetry analysis using a Hemox™ Analyzer (TCS Scientific Corp.) as previously described. Change in p50 values (Δp50) was calculated by subtracting the p50 values of treated samples from the value of the control sample and expressing the difference as a percentage of control p50 values.
Target sequence in this assay (P69905 2-142 limits assumed): as the sequence (P69905 2-142 limits assumed) above
Target sequence in this assay (P68871 2-147 partner limits assumed): as the sequence (P68871 2-147 partner limits assumed) above

For data set [9] the following is noted: patients with SCD, most patients; cited from earlier work.
Setting [10] is: female rats, read-out: AUC0-∞ (female).
Where [11] appears, read: female rats, read-out: Cmax (female).
Setting [12] is: male rats, read-out: AUC0-∞ (male).
Where [13] appears, read: male rats, read-out: Cmax (male).

For orientation: Cmax means the maximum level reached in the sampled fluid or tissue. As a reminder, the half-life is how long it takes for the measured level to halve. As a reminder, the Kd is the constant that tells how readily two partners part at equilibrium. Low readings indicate tighter binding, high ones weaker binding. Take `O=Cc1c(O)cccc1OCc1cccnc1` [Comp 1, 2-hydroxy-6-(pyridin-3-ylmethoxy)benzaldehyde]: in [1], the AUC(0-inf) was 4e+06 ng·h/mL and 17400 µM·h; the peak concentration (Cmax) is 211000 ng/mL and 919 µM; the half-life is 5 h. In addition, at Hb [2], the “Fixed Adducts (%)” value is listed as 96.0 ± 1.9%, the “Unfixed Adduct (%)” value was found to be 97.4 ± 2.8% and the “Partitioning Ratio (%)” value is reported as 98.6 ± 2.8%. For the same molecule, on Hb [3], the Kd came out at 60 µM. For the same molecule, the AUC(0-inf) in [4] (setting [10]) was 1.9e+06 ng·h/mL and 8080 µM·h. Further, in [4] (setting [11]), the maximum concentration (Cmax) was 122000 ng/mL and 534 µM. Moreover, in data set [4] (setting [12]), the AUC(0-inf) is 2.4e+06 ng·h/mL and 10500 µM·h. Moreover, the Cmax in [4] (setting [13]) was 161000 ng/mL and 703 µM. In addition, in data set [5], the “safety in non-clinical toxicology” value is given as “without hepatotoxicity” and the “clinical or histopathologic changes after 14 days of exposure” value (from here on “clinical or histopathologic changes”) is “No clinical or histopathologic changes”. Further, at Hb [6], the “Hb Modification (%)” value stood at 95.8 ± 6.2%. The “polymer destabilizing effect / sickle inhibition in anoxia (in words)” value in data set [7] is “most potent and sustained polymer destabilizing effects observed to date”. Also, the “change in p50 of Hb in human blood (in words)” value on Hb [8] is recorded as “relatively weak changes in p50”.

Consider `O=Cc1c(O)cccc1OCc1ccccn1` [Comp 2, 2-hydroxy-6-(pyridin-2-ylmethoxy)benzaldehyde], for which, in [1], the AUC(0-inf) was 4.5e+06 ng·h/mL and 19800 µM·h; the maximum concentration (Cmax) is 220000 ng/mL and 958 µM; the half-life is 9.7 h. Besides, at Hb [2], the “Fixed Adducts (%)” value was determined as 95.2 ± 2.3%, the “Unfixed Adduct (%)” value worked out at 96.3 ± 2.6% and the “Partitioning Ratio (%)” value is recorded as 98.9 ± 2.9%. The AUC(0-inf) in data set [4] (setting [10]) is 4.9e+06 ng·h/mL and 21500 µM·h. Moreover, in data set [4] (setting [11]), the Cmax is 254000 ng/mL and 1.11 mM. For the same molecule, the AUC(0-inf) in data set [4] (setting [12]) is 4.7e+06 ng·h/mL and 20400 µM·h. For the same molecule, in [4] (setting [13]), the peak concentration (Cmax) is 254000 ng/mL and 1.11 mM. In data set [5], the “safety in non-clinical toxicology” value is listed as “without hepatotoxicity” and the “clinical or histopathologic changes” value is on record as “No clinical or histopathologic changes”. For the same molecule, the “Hb Modification (%)” value on Hb [6] amounted to 95.5 ± 5.7%. In data set [7], the “polymer destabilizing effect / sickle inhibition in anoxia (in words)” value was “most potent and sustained polymer destabilizing effects observed to date”. Also, at Hb [8], the “change in p50 of Hb in human blood (in words)” value was “relatively weak changes in p50”.

In the case of `CC(C)n1nccc1-c1ncccc1COc1cccc(O)c1C=O` [Voxelotor, reference compound], the “Fixed Adducts (%)” value on Hb [2] came to 77.0 ± 3.8%. Further, at Hb [2], the “Unfixed Adduct (%)” value is 80.3 ± 6.3%. Besides, on Hb [2], the “Partitioning Ratio (%)” value is recorded as 96.1 ± 3.7%. In addition, the AUC(0-inf) was 2.6e+06 ng·h/mL and 7620 µM·h in [4] (setting [10]); 2.3e+06 ng·h/mL and 6760 µM·h in data set [4] (setting [12]). Besides, the Cmax was 185000 ng/mL and 548 µM in data set [4] (setting [11]); 142000 ng/mL and 422 µM in data set [4] (setting [13]). In addition, the “increase in Hb concentrations” value in data set [9] is given as “at least 1 g/dl”. On Hb [6], the “Hb Modification (%)” value is on record as 92.3 ± 6.8%. Further, in data set [7], the “polymer destabilizing effect / sickle inhibition in anoxia (in words)” value was “did not demonstrate any sickle inhibition in anoxic conditions”.

As to `O=Cc1c(O)cccc1OCc1cccc(CO)n1` [VZHE-039, reference compound], the AUC(0-inf) in data set [1] is 2.3e+06 ng·h/mL and 8780 µM·h; in [4] (setting [10]) it was 3.2e+06 ng·h/mL and 12200 µM·h; in data set [4] (setting [12]), 3e+06 ng·h/mL and 11600 µM·h. The peak concentration (Cmax) was 102000 ng/mL and 394 µM in data set [1]; 232000 ng/mL and 894 µM in data set [4] (setting [11]); 195000 ng/mL and 753 µM in data set [4] (setting [13]). In data set [1], this molecule gave a half-life of 8.4 h. Moreover, at Hb [2], the “Fixed Adducts (%)” value is listed as 90.9 ± 3.4%. Besides, the “Unfixed Adduct (%)” value at Hb [2] is 92.4 ± 5.6%. Also, at Hb [2], the “Partitioning Ratio (%)” value was 98.5 ± 4.3%. The Kd at Hb [3] is 100 µM. In addition, in data set [5], the “clinical or histopathologic changes” value was “clinical and histopathologic changes in the liver, including hepatocyte necrosis”. Moreover, the “Hb Modification (%)” value on Hb [6] was 90.7 ± 9.9%.
